In patent US9505758B2 (priority 2013, dated 2016):

Target: T1, influenza A virus (IAV) PA-Nter fragment (amino acids 1-209) (Influenza A virus, UniProt P31343)
T1 construct: PA-Nter fragment (amino acids 1-209); made in house
Assay: FRET endonuclease activity assay
Assay type: biochemical
Conditions: calculated from initial reaction velocities (v0); 0.5 μM PA-Nter, 1.6 μM RNA substrate

First: O=C(O)c1cn(Cc2ccccc2-c2ccccc2)c2nccnc2c1=O
Second: O=C(O)c1cn(Cc2ccccc2-c2ccccc2)c2cccnc2c1=O
The IC50 of the first is 10-fold higher: 7800 nM for the first, 760 nM for the second.

Going from `O=C(O)c1cn(CC2(c3ccccc3)CCCC2)c2nccnc2c1=O` to `O=C(O)c1cn(CC2(c3ccccc3)CCCC2)c2cccnc2c1=O`, the IC50 falls from 9700 nM to 600 nM (16-fold).

Compared with `Cc1cnc2c(=O)c(C(=O)O)cn(Cc3ccccc3-c3ccccc3)c2c1`, `O=C(O)c1cn(Cc2ccccc2-c2ccccc2)c2cc(Br)cnc2c1=O` [1-(Biphenyl-2-ylmethyl)-7-bromo-4-oxo-1,4-dihydro-1,5-naphthyridine-3-carboxylic acid] is 2.6-fold higher in IC50: 570 nM for the first, 1500 nM for the second.

Compound `O=C(O)c1cn(Cc2ccccc2-c2ccc(Cl)cc2)c2cccnc2c1=O` has an IC50 of 430 nM.
